Source: paper PMC11999280, “Design and screening of novel endosomal escape compounds that enhance functional delivery of oligonucleotides in vitro” (Molecular Therapy. Nucleic Acids, 2025)

Columns and labels:
Format in all cases: cell-based
[1] = tested on: mCherry-GAL9 expressing 16HBE cells; assay: GAL9 recruitment assay, 16HBE; details: calculated mean from >3 independent exp.
Procedure: (§1) Experiments assessing GAL9 localization as an indicator for endosomal remodeling were performed as previously described[15] using 8× stablemCherry-GAL9 expressing cell lines, SHSY5Y, U2OS, 16HBE, NCI-H358, HuH7, HepG2, HEK293, and HeLa. For mCherry-GAL9 recruitment, 3,000 or 6,500 cells/well (depending upon cell line) were seeded into 384-well CellCarrier Ultra plates 24 h prior to treatment (PerkinElmer, catalog no. 6007558). An Echo 655T acoustic dispenser (Labcyte) was used for EEE dose-response preparation by transferring to the cell plate. At assay endpoints, cells were PBS washed, 4% paraformaldehyde fixed at room temperature […] (VWR, catalog no. 9713.1000), and nuclei stained with PBS +1 μg/mL Hoechst 33342 (Thermo Fisher Scientific, catalog no. H21492).
(§2) Imaging was performed using a spinning-disk confocal microscope (Yokogawa: CV8000) with a ×20w objective (numerical aperture 1.0). Cells and mCherry-GAL9 structure identification and quantification were done using Columbus image-analysis software (PerkinElmer version 2.9.0). Data processing was done using Spotfire (Tibco version 11.4) and Prism (GraphPad version 9.1.0). Image panels were assembled using the FigureJ plugin for FIJI.[43] All mCherry-GAL9 experiments were performed three times (N = 3) with duplicated wells per treatment (n = 2).

[2] = tested on: mCherry-GAL9 expressing U2OS cells; assay: GAL9 recruitment assay, U2OS; details: calculated mean from >3 independent exp.
Procedure: as §1, §2

[3] = tested on: mCherry-GAL9 expressing NCI-H358 cells; assay: GAL9 recruitment assay, NCI-H358; details: calculated mean from >3 independent exp.
Procedure: as §1, §2

[4] = tested on: mCherry-GAL9 expressing HuH7 cells; assay: GAL9 recruitment assay, HuH7; details: calculated mean from >3 independent exp.
Procedure: as §1, §2

[5] = tested on: mCherry-GAL9 expressing HEK293 cells; assay: GAL9 recruitment assay, HEK293; details: calculated mean from >3 independent exp.
Procedure: as §1, §2

[6] = tested on: HeLa_Luc705 cells (pLuc/705 splice-switching reporter); assay: Functional 705-SSO delivery, luciferase splice-switching assay; details: HeLa-Luc705 + 2 µM SSO; EEE 2.5 - 3 µM; mean from >3 independent experiments
Source text: Therefore, next, we functionally screened the SSO delivery in the HeLa_Luc705 reporter cell line. HeLa_Luc705 carries a pLuc/705 splice-switching reporter luciferase gene interrupted by a mutated β-globin intron, which creates a preferentially used cryptic 5′ splice site leading to aberrant splicing. Functional SSO delivery masks the cryptic site, redirecting the splicing machinery to the right splicing site, allowing the measurement of luciferase expression (Figure S1).[25]^,[26]^,[27]^,[28] We used SSO transfection with LF2000 as transfection control and the previously published endosomal escape enhancer CMP05 (here, EEE2) as positive control.[15]
For the assessment of functional SSO therapeutics, a HeLa_Luc705 cell line was grown in DMEM media supplemented with 10% fetal bovine serum (FBS). For most treatments, 10,000 cells/well were seeded in a 96-well plate, 24 h pre-incubated with 1- to 2-μM oligonucleotide, and then treated at the described EEE concentration. At 24 h post-treatment, cells were PBS rinsed and collected for further analysis (treatments and incubation times changed accordingly to the experiment design). Luciferase readout was performed as previously described,[15] using a GloMax 96-well plate microplate luminometer (Promega) immediately after adding 30 μL auto-injected luciferin substrate (Promega Firefly Luciferase Assay System; Thermo Scientific, catalog no. 16174) in a white-walled 96-well plate containing 30 μL 0.1% Triton X-100 (Sigma-Aldrich) cell lysed. Photon exposure time and delay were set to 10 and 2 s after injection. LF2000 was used as the transfection reagent control (Thermo Scientific, catalog no. 11668019). For EEE experiments using 1 or 2 μM SSOs, the control was prepared using lipofection with 100–200 nM SSO; this is to avoid complex induced cell toxicity.
705-SSO was purchased from and synthesized by Integrated DNA Technologies. The 705-SSO sequence was previously published, containing 2′-O-methylated bases and only phosphorothioate-saturated backbone linkages were included.[15] The 705-SSO was high-performance liquid chromatography purified, shipped, and stored in IDTE buffer (10 mM Tris, 0.1 mM EDTA).

[7] = tested on: mCherry-GAL9 expressing SHSY5Y cells; assay: GAL9 recruitment assay, SHSY5Y; details: calculated mean from >3 independent exp.
Procedure: as §1, §2

[8] = tested on: mCherry-GAL9 expressing HeLa cells; assay: GAL9 recruitment assay, HeLa; details: calculated mean from >3 independent exp.
Procedure: as §1, §2

[9] = tested on: mCherry-GAL9 expressing HepG2 cells; assay: GAL9 recruitment assay, HepG2; details: calculated mean from >3 independent exp.
Procedure: as §1, §2

Compound: CCOc1nn(C2CCN(C)CC2)cc1Nc1ncc(C(F)(F)F)c(-c2c[nH]c3ccccc23)n1 [EEE15]
- Gal9 response compared to reference ([1]; EEE 0.31 µM): 0.006
- Gal9 response compared to reference ([1]; EEE 0.62 µM): 0.007
- Gal9 response compared to reference ([1]; EEE 1.25 µM): 0.007
- Gal9 response compared to reference ([1]; EEE 2.5 µM): 0.008
- Gal9 response compared to reference ([1]; EEE 5 µM): 0.010
- Gal9 response compared to reference ([1]; EEE 10 µM): 0.034
- Gal9 response compared to reference ([2]; EEE 0.31 µM): 0.010
- Gal9 response compared to reference ([2]; EEE 0.62 µM): 0.009
- Gal9 response compared to reference ([2]; EEE 1.25 µM): 0.010
- Gal9 response compared to reference ([2]; EEE 2.5 µM): 0.009
- Gal9 response compared to reference ([2]; EEE 5 µM): 0.014
- Gal9 response compared to reference ([2]; EEE 10 µM): 0.014
- Gal9 response compared to reference ([3]; EEE 0.31 µM): 0.013
- Gal9 response compared to reference ([3]; EEE 0.62 µM): 0.016
- Gal9 response compared to reference ([3]; EEE 1.25 µM): 0.017
- Gal9 response compared to reference ([3]; EEE 2.5 µM): 0.015
- Gal9 response compared to reference ([3]; EEE 5 µM): 0.016
- Gal9 response compared to reference ([3]; EEE 10 µM): 0.011
- Gal9 response compared to reference ([4]; EEE 0.31 µM): 0.008
- Gal9 response compared to reference ([4]; EEE 0.62 µM): 0.007
- Gal9 response compared to reference ([4]; EEE 1.25 µM): 0.008
- Gal9 response compared to reference ([4]; EEE 2.5 µM): 0.009
- Gal9 response compared to reference ([4]; EEE 5 µM): 0.009
- Gal9 response compared to reference ([4]; EEE 10 µM): 0.011
- Gal9 response compared to reference ([5]; EEE 0.31 µM): 0.020
- Gal9 response compared to reference ([5]; EEE 0.62 µM): 0.019
- Gal9 response compared to reference ([5]; EEE 1.25 µM): 0.015
- Gal9 response compared to reference ([5]; EEE 2.5 µM): 0.015
- Gal9 response compared to reference ([5]; EEE 5 µM): 0.018
- Gal9 response compared to reference ([5]; EEE 10 µM): 0.022
- Luciferase expression compared to reference [6]: 0.652
- Gal9 response compared to reference ([7]; EEE 0.31 µM): 0.014
- Gal9 response compared to reference ([7]; EEE 0.62 µM): 0.017
- Gal9 response compared to reference ([7]; EEE 1.25 µM): 0.014
- Gal9 response compared to reference ([7]; EEE 2.5 µM): 0.016
- Gal9 response compared to reference ([7]; EEE 5 µM): 0.012
- Gal9 response compared to reference ([7]; EEE 10 µM): 0.012
- Gal9 response compared to reference ([8]; EEE 0.31 µM): 0.004
- Gal9 response compared to reference ([8]; EEE 0.62 µM): 0.004
- Gal9 response compared to reference ([8]; EEE 1.25 µM): 0.004
- Gal9 response compared to reference ([8]; EEE 2.5 µM): 0.005
- Gal9 response compared to reference ([8]; EEE 5 µM): 0.004
- Gal9 response compared to reference ([8]; EEE 10 µM): 0.003
- Gal9 response compared to reference ([9]; EEE 0.31 µM): 0.008
- Gal9 response compared to reference ([9]; EEE 0.62 µM): 0.008
- Gal9 response compared to reference ([9]; EEE 1.25 µM): 0.009
- Gal9 response compared to reference ([9]; EEE 2.5 µM): 0.007
- Gal9 response compared to reference ([9]; EEE 5 µM): 0.007
- Gal9 response compared to reference ([9]; EEE 10 µM): 0.010

Compound: COc1nn(C2CCN(C)CC2)cc1Nc1ncc(C(F)(F)F)c(-n2ccc3c(C#N)cccc32)n1 [EEE16]
- Gal9 response compared to reference ([1]; EEE 0.31 µM): 0.008
- Gal9 response compared to reference ([1]; EEE 0.62 µM): 0.009
- Gal9 response compared to reference ([1]; EEE 1.25 µM): 0.008
- Gal9 response compared to reference ([1]; EEE 2.5 µM): 0.007
- Gal9 response compared to reference ([1]; EEE 5 µM): 0.011
- Gal9 response compared to reference ([1]; EEE 10 µM): 0.129
- Gal9 response compared to reference ([2]; EEE 0.31 µM): 0.010
- Gal9 response compared to reference ([2]; EEE 0.62 µM): 0.011
- Gal9 response compared to reference ([2]; EEE 1.25 µM): 0.010
- Gal9 response compared to reference ([2]; EEE 2.5 µM): 0.010
- Gal9 response compared to reference ([2]; EEE 5 µM): 0.010
- Gal9 response compared to reference ([2]; EEE 10 µM): 0.024
- Gal9 response compared to reference ([3]; EEE 0.31 µM): 0.014
- Gal9 response compared to reference ([3]; EEE 0.62 µM): 0.017
- Gal9 response compared to reference ([3]; EEE 1.25 µM): 0.014
- Gal9 response compared to reference ([3]; EEE 2.5 µM): 0.018
- Gal9 response compared to reference ([3]; EEE 5 µM): 0.014
- Gal9 response compared to reference ([3]; EEE 10 µM): 0.019
- Gal9 response compared to reference ([4]; EEE 0.31 µM): 0.009
- Gal9 response compared to reference ([4]; EEE 0.62 µM): 0.007
- Gal9 response compared to reference ([4]; EEE 1.25 µM): 0.008
- Gal9 response compared to reference ([4]; EEE 2.5 µM): 0.012
- Gal9 response compared to reference ([4]; EEE 5 µM): 0.008
- Gal9 response compared to reference ([4]; EEE 10 µM): 0.022
- Gal9 response compared to reference ([5]; EEE 0.31 µM): 0.023
- Gal9 response compared to reference ([5]; EEE 0.62 µM): 0.020
- Gal9 response compared to reference ([5]; EEE 1.25 µM): 0.019
- Gal9 response compared to reference ([5]; EEE 2.5 µM): 0.022
- Gal9 response compared to reference ([5]; EEE 5 µM): 0.024
- Gal9 response compared to reference ([5]; EEE 10 µM): 0.121
- Luciferase expression compared to reference [6]: 0.810
- Gal9 response compared to reference ([7]; EEE 0.31 µM): 0.014
- Gal9 response compared to reference ([7]; EEE 0.62 µM): 0.014
- Gal9 response compared to reference ([7]; EEE 1.25 µM): 0.012
- Gal9 response compared to reference ([7]; EEE 2.5 µM): 0.012
- Gal9 response compared to reference ([7]; EEE 5 µM): 0.012
- Gal9 response compared to reference ([7]; EEE 10 µM): 0.042
- Gal9 response compared to reference ([8]; EEE 0.31 µM): 0.004
- Gal9 response compared to reference ([8]; EEE 0.62 µM): 0.004
- Gal9 response compared to reference ([8]; EEE 1.25 µM): 0.003
- Gal9 response compared to reference ([8]; EEE 2.5 µM): 0.004
- Gal9 response compared to reference ([8]; EEE 5 µM): 0.004
- Gal9 response compared to reference ([8]; EEE 10 µM): 0.005
- Gal9 response compared to reference ([9]; EEE 0.31 µM): 0.010
- Gal9 response compared to reference ([9]; EEE 0.62 µM): 0.007
- Gal9 response compared to reference ([9]; EEE 1.25 µM): 0.008
- Gal9 response compared to reference ([9]; EEE 2.5 µM): 0.008
- Gal9 response compared to reference ([9]; EEE 5 µM): 0.009
- Gal9 response compared to reference ([9]; EEE 10 µM): 0.010
